Consider four compounds from patent publication US6555535B2, “Tricyclic biphenyl sulfonamide matrix metalloproteinase inhibitors” (Warner-Lambert Company, priority 2001, dated 2003).

Molecules are shown by their SMILES.

Type in all cases: biochemical
One assay addresses MMP-9FL (Homo sapiens, UniProt P14780). Description: thiopeptolide hydrolysis assay, full length Gelatinase B. Conditions: thiopeptolide substrate, HEPES pH 7.0, 22° C. From the text:
(§1) The assays measure the amount by which a test compound reduces the hydrolysis of a thiopeptolide substrate catalyzed by a matrix metalloproteinase enzyme. Such assays are described in detail by Ye et al., in Biochemistry, 1992;31(45):11231-11235, which is incorporated herein by reference.
(§2) Thiopeptolide substrates show virtually no decomposition or hydrolysis at or below neutral pH in the absence of a matrix metalloproteinase enzyme. A typical thiopeptolide substrate commonly utilized for assays is Ac-Pro-Leu-Gly-thioester-Leu-Leu-Gly-OEt. A 100 μL assay mixture will contain 50 mM of N-2-hydroxyethylpiperazine-N′-2-ethanesulfonic acid buffer (“HEPES”) at pH 7.0, 10 mM CaCl2, 100 μM thiopeptolide substrate, and 1 mM 5,5′-dithio-bis-(2-nitro-benzoic acid) (DTNB). The thiopeptolide substrate concentration may be varied from, for example, 10 to 800 μM to obtain Km and Kcat values. The change in absorbance at 405 nm is monitored on a Thermo Max microplate reader (Molecular Devices, Menlo Park, Calif.) at room temperature (22° C.). The calculation of the amount of hydrolysis of the thiopeptolide substrate is based on E412=13600 M^−1 cm^−1 for the DTNB-derived product 3-carboxy-4-nitrothiophenoxide. Assays are carried out with and without matrix metalloproteinase inhibitor compounds, and the amount of hydrolysis is compared for a determination of inhibitory activity of the test compounds.
(§3) Several representative compounds have been evaluated for their ability to inhibit various matrix metalloproteinase enzymes. In Table 1, MMP-1FL refers to full length interstitial collagenase; MMP-2FL refers to full length Gelatinase A; MMP-3CD refers to the catalytic domain of stromelysin-1; MMP-7FL refers to full length matrilysin; MMP-9FL refers to full length Gelatinase B; MMP-13CD refers to the catalytic domain of collagenase 3; and MMP-14CD refers to the catalytic domain of MMP-14. Test compounds were evaluated at various concentrations in order to determine their respective IC50 values, the micromolar concentration of compound required to cause a 50% inhibition of the catalytic activity of the respective enzyme.

For a further assay, the target named is MMP-13CD (Homo sapiens, UniProt P45452). Description: thiopeptolide hydrolysis assay, catalytic domain of collagenase 3. Conditions: thiopeptolide substrate, HEPES pH 7.0, 22° C.
Description: as §1, §2, §3

A further assay has as its target T1, MMP-7FL (Homo sapiens, UniProt P09237).
T1 sequence (P09237 95-267): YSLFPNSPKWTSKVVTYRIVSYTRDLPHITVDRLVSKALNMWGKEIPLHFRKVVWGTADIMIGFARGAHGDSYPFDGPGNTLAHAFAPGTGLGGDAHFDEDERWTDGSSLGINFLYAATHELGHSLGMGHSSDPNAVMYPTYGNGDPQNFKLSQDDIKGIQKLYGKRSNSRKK
Description: thiopeptolide hydrolysis assay, full length matrilysin. Conditions: thiopeptolide substrate, HEPES pH 7.0, 22° C.
Description: as §1, §2, §3

A further assay has as its target T2, MMP-2FL (Homo sapiens, UniProt P08253).
T2 sequence (P08253 110-660): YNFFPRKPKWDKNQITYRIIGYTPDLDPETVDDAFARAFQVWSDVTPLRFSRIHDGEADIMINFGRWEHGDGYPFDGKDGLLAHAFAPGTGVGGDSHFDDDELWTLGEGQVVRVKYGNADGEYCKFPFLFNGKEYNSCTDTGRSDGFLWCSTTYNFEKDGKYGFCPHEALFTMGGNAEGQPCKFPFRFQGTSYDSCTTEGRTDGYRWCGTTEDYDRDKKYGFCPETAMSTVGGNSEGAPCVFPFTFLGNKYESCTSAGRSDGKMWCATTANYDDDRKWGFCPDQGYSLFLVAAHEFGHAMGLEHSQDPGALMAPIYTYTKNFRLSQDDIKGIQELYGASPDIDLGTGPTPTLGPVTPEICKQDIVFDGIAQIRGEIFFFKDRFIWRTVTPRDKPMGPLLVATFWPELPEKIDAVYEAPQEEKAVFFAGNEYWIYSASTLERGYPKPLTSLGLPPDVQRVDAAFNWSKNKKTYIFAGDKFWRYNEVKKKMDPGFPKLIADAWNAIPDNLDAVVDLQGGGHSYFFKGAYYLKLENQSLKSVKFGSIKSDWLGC
Description: thiopeptolide hydrolysis assay, full length Gelatinase A. Conditions: thiopeptolide substrate, HEPES pH 7.0, 22° C.
Description: as §1, §2, §3

Another assay deals with MMP-14CD (Homo sapiens, UniProt P50281). The assay is described as follows: thiopeptolide hydrolysis assay, catalytic domain of MMP-14. Conditions: thiopeptolide substrate, HEPES pH 7.0, 22° C.
Description: as §1, §2, §3

The target of the next assay is MMP-3CD (Homo sapiens, UniProt P08254). The assay is described as follows: thiopeptolide hydrolysis assay, catalytic domain of stromelysin-1. Conditions: thiopeptolide substrate, MES buffer pH 6.0.
MMP-3CD, sequence (P08254 100-272 limits assumed): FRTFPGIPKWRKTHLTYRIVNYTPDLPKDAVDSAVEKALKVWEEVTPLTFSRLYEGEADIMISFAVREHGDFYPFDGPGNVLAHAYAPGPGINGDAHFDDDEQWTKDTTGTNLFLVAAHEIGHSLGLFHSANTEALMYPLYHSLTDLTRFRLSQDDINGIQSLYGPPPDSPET
Description: as §1, §2, §3
It should be appreciated that the assay buffer used with MMP-3CD was 50 mM of 2-morpholinoethanesulfonic acid monohydrate (“MES”) at pH 6.0, rather than the HEPES buffer at pH 7.0 described above.

The next assay concerns the target T3, MMP-1FL (Homo sapiens, UniProt P03956).
T3 sequence (P03956 100-469): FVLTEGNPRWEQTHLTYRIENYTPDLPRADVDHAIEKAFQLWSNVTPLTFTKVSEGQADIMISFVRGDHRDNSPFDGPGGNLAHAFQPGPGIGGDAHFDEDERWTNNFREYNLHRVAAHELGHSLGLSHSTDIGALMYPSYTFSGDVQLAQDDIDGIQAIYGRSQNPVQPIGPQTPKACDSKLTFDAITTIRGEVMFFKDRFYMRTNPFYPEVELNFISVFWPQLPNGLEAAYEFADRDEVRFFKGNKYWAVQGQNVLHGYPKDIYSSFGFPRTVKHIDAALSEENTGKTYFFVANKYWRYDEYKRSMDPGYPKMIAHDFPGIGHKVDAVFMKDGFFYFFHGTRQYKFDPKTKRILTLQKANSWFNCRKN
Description: thiopeptolide hydrolysis assay, full length interstitial collagenase. Conditions: thiopeptolide substrate, HEPES pH 7.0, 22° C.
Description: as §1, §2, §3

A word on the IC50: it is the concentration that gives 50% inhibition. A lower IC50 goes with higher potency.

MMP-9FL, sequence (P14780 94-707): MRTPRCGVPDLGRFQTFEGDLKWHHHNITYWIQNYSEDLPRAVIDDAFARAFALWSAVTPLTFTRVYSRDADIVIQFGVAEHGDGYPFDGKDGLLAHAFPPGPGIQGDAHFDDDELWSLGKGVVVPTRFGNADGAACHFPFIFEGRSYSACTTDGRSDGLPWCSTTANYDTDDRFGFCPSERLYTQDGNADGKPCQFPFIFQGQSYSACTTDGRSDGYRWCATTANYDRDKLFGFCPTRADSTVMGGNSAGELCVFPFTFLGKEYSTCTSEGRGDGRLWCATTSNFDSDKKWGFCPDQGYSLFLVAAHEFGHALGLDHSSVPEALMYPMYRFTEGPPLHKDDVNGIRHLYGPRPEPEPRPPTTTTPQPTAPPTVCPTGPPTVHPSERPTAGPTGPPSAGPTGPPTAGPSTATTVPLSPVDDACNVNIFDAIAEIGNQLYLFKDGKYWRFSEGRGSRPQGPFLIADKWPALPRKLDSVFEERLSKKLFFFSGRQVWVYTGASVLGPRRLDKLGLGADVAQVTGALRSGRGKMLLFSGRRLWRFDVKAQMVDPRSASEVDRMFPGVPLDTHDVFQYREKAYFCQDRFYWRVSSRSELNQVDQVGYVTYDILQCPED

In the case of `CC1(C)C(C(=O)O)N(S(=O)(=O)c2ccc3c4c(oc3c2)CCCCC4)CCS1(=O)=O` (stereo not shown) [Example 6, 2,2-Dimethyl-1,1-dioxo-4-(6,7,8,9-tetrahydro-5H-10-oxa-benzo{a}azulene-2-sulfonyl)-1l^6-thiomorpholine-3-carboxylic Acid], the IC50 worked out at 70000 nM against MMP-9FL; 2100 nM at MMP-13CD; 41000 nM against MMP-7FL; 600 nM against MMP-2FL; 93 nM against MMP-14CD; 37 nM against MMP-3CD. Further, the IC50 on MMP-1FL was determined as 40000 nM.
As to `CC1(C)SCCN(S(=O)(=O)c2ccc3c4c(oc3c2)CCCC4)[C@H]1C(=O)O` [Example 3, (S)-2,2-Dimethyl-4-(6,7,8,9-tetrahydro-dibenzofuran-3-sulfonyl)thiomorpholine-3-carboxylic Acid], the IC50 is 54000 nM on MMP-9FL; 1310 nM at MMP-13CD; 100000 nM against MMP-7FL; 390 nM against MMP-2FL; 150 nM on MMP-14CD; 39 nM on MMP-3CD. The same compound had an IC50 against MMP-1FL of 6900 nM.
Take `CC1(C)SCCN(S(=O)(=O)c2ccc3c4c(oc3c2)CCCC4)[C@H]1C(=O)NO` [Example 4, (S)-2,2-Dimethyl-4-(6,7,8,9-tetrahydro-dibenzofuran-3-sulfonyl)thiomorpholine-3-carboxylic Hydroxamide]: the IC50 was 210 nM at MMP-9FL; 12 nM against MMP-13CD; 230 nM at MMP-7FL; 82 nM on MMP-2FL; 52 nM against MMP-14CD; 9 nM at MMP-3CD. This compound returned an IC50 at MMP-1FL of 69 nM.
On to `CC1(C)C(C(=O)NO)N(S(=O)(=O)c2ccc3c4c(oc3c2)CCCCC4)CCS1(=O)=O` (stereo not shown) [Example 7, 2,2-Dimethyl-1,1-dioxo-4-(6,7,8,9-tetrahydro-5H-10-oxa-benzo{a}azulene-2-sulfonyl)-1l^6-thiomorpholine-3-carboxylic Acid Hydroxyamide], for which the IC50 against MMP-9FL is 450 nM; on MMP-13CD it was 6.2 nM; on MMP-7FL, 420 nM; at MMP-2FL, 220 nM; at MMP-14CD, 53 nM; at MMP-3CD, 15 nM. This compound also showed an IC50 at MMP-1FL of 970 nM.
